Experimental data from ChEMBL document CHEMBL1201862, “PubChem BioAssay data set” (2004).
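Dose response: 5 concentrations. Exposure: 48 h. Format: 96-well plates. Endpoint: linear interpolation; highest concentration if not reached. GI50: concentration for 50% inhibition of growth.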 Calls of active or inactive are those of the source. No stated cut-off is given here; in the data, active = GI50 up to about 1.1 µM and inactive = higher.

Columns and labels:
Test in all cases: DTP human tumour cell line panel, 48 h
[1] = system: 786-0
[2] = system: A498
[3] = system: ACHN
[4] = system: CAKI-1
[5] = system: CCRF-CEM
[6] = system: DU-145
[7] = system: HCT-116
[8] = system: KM12
[9] = system: M14
[10] = system: Malme-3M
[11] = system: NCI-H460
[12] = system: PC-3
[13] = system: SF-268
[14] = system: SK-MEL-28
[15] = system: SNB-19
[16] = system: SNB-75
[17] = system: SW-620
[18] = system: UO-31
[19] = system: OVCAR-8
[20] = system: MOLT-4

Row | Structure (SMILES) | GI50 [1] | GI50 [2] | GI50 [3] | GI50 [4] | GI50 [5] | GI50 [6] | GI50 [7] | GI50 [8] | GI50 [9] | GI50 [10] | GI50 [11] | GI50 [12] | GI50 [13] | GI50 [14] | GI50 [15] | GI50 [16] | GI50 [17] | GI50 [18] | GI50 [19] | GI50 [20]
1 | CN(C)c1ccc(/C=C/c2ccnc3ccccc23)cc1 | 89.7 µM (inactive) | > 100 µM (inactive) | 40.3 µM (inactive) | > 100 µM (inactive) | 49.5 µM (inactive) | 47.9 µM (inactive) | 39.8 µM (inactive) | 55.8 µM (inactive) | 65.8 µM (inactive) | 53.2 µM (inactive) | 47.9 µM (inactive) | > 100 µM (inactive) | > 100 µM (inactive) | 72.6 µM (inactive) | > 100 µM (inactive) | 28.8 µM (inactive) | 39.4 µM (inactive) | 43.9 µM (inactive) |  | 
2 | CCOC(=O)CC(=O)Nc1c(C(=O)OCC)sc2nc(SC)nc(Nc3ccc(OC)c(OC)c3)c12 | 6.22 µM (inactive) | 28.9 µM (inactive) | 19.8 µM (inactive) | 64 µM (inactive) | > 100 µM (inactive) | 39.7 µM (inactive) | 39.4 µM (inactive) | 80.5 µM (inactive) | > 100 µM (inactive) | > 100 µM (inactive) |  | > 100 µM (inactive) | 3.19 µM (inactive) | > 100 µM (inactive) |  | 1.99 µM (inactive) | > 100 µM (inactive) | > 100 µM (inactive) | 34.4 µM (inactive) | 
3 | Cc1cn([C@@H]2C[C@H](CO)[C@@H]2O)c(=O)[nH]c1=O | > 100 µM (inactive) | > 100 µM (inactive) | > 100 µM (inactive) | > 100 µM (inactive) | > 100 µM (inactive) | > 100 µM (inactive) | > 100 µM (inactive) | > 100 µM (inactive) |  | > 100 µM (inactive) | > 100 µM (inactive) | > 100 µM (inactive) | > 100 µM (inactive) | > 100 µM (inactive) |  | > 100 µM (inactive) | > 100 µM (inactive) | > 100 µM (inactive) | > 100 µM (inactive) | > 100 µM (inactive)
4 | N#Cc1c(-c2ccco2)c2c(n(C3OC(CO)C(O)C(O)C3O)c1=S)CCCC2 (stereo not drawn) | > 100 µM (inactive) | > 100 µM (inactive) | > 100 µM (inactive) | > 100 µM (inactive) | > 100 µM (inactive) | > 100 µM (inactive) | > 100 µM (inactive) | > 100 µM (inactive) | > 100 µM (inactive) | > 100 µM (inactive) | > 100 µM (inactive) | > 100 µM (inactive) | > 100 µM (inactive) | > 100 µM (inactive) |  | 0.0239 µM (active) |  |  | > 100 µM (inactive) | > 100 µM (inactive)
5 | CC(=O)OC(C)(C)/C=C/C(=O)[C@](C)(O)[C@H]1[C@H](O)C[C@@]2(C)[C@@H]3CC=C4[C@@H](C[C@H](O)C(=O)C4(C)C)[C@]3(C)C(=O)C[C@]12C | < 0.01 µM (active) | < 0.01 µM (active) | < 0.01 µM (active) | < 0.01 µM (active) | < 0.01 µM (active) | < 0.01 µM (active) | < 0.01 µM (active) | 1.4 µM (inactive) | < 0.01 µM (active) | < 0.01 µM (active) | < 0.01 µM (active) | < 0.01 µM (active) | < 0.01 µM (active) | < 0.01 µM (active) | < 0.0174 µM (active) | < 0.01 µM (active) | < 0.01 µM (active) | < 0.01 µM (active) | 0.064 µM (active) | 0.167 µM (active)
6 | CN(C)c1ccc2oc(=O)c3ccccc3c2c1 | 30.5 µM (inactive) | 34.8 µM (inactive) | 24.3 µM (inactive) | 28.9 µM (inactive) | > 100 µM (inactive) | > 100 µM (inactive) | 40.9 µM (inactive) |  | > 100 µM (inactive) | > 100 µM (inactive) | > 100 µM (inactive) | > 100 µM (inactive) | 28.6 µM (inactive) | > 100 µM (inactive) | 23.1 µM (inactive) | 27.5 µM (inactive) | > 100 µM (inactive) |  | > 100 µM (inactive) | > 100 µM (inactive)
7 | O=C1CCc2cc3c(cc21)CC1(Cc2ccccc2C1)C3 | 36.3 µM (inactive) | 12.2 µM (inactive) | 19.8 µM (inactive) | 0.703 µM (active) | 2.98 µM (inactive) | 20.8 µM (inactive) | 4.08 µM (inactive) | > 22.4 µM (inactive) | 14.9 µM (inactive) | 16.8 µM (inactive) | 6.31 µM (inactive) | 14.2 µM (inactive) | 37.8 µM (inactive) | 10.3 µM (inactive) | 27.2 µM (inactive) | 15.7 µM (inactive) | 4.34 µM (inactive) | 4.02 µM (inactive) | 24.9 µM (inactive) | 0.678 µM (active)
8 | COc1ccc(C[C@@H]2OC3(C=CC(=O)C=C3)O[C@H]2Cc2ccc(OC)cc2)cc1 | 0.184 µM (active) | 5.53 µM (inactive) | 0.405 µM (active) | 0.354 µM (active) | 0.14 µM (active) | 1.48 µM (inactive) | 0.133 µM (active) | 1.91 µM (inactive) | 0.889 µM (active) | 1.51 µM (inactive) | 7.14 µM (inactive) | 1.33 µM (inactive) | 0.771 µM (active) | 1.71 µM (inactive) | 1.82 µM (inactive) | 1.68 µM (inactive) | 0.114 µM (active) | 0.29 µM (active) | 0.193 µM (active) | 0.173 µM (active)
